Test results taken from patent US11078228B2, “Ectonucleotidase inhibitors and methods of use thereof” (Calithera Biosciences, Inc., priority 2018, dated 2021).

molecular target: recombinant CD73 (Homo sapiens (Human), UniProt P21589); experiment: Assay 1: Inhibition of the CD73 enzyme in vitro (0.5 nM CD73, 30 min room temperature, Malachite Green); type: biochemical; conditions: 0.5 nM CD73, 30 minutes at room temperature
Method: For measurements of soluble CD73 enzyme activity, recombinant CD73 was obtained from R&D Systems, Cat. No. 5795-EN-010. […] Reactions were allowed to proceed for 30 minutes at room temperature before the addition of 100 μL Malachite Green (Cell Signaling Technology, Cat. No. 12776). After 5 minutes at room temperature, absorbance at 630 nm was determined on a microplate spectrophotometer. The concentration of inorganic phosphate was determined using a phosphate standard curve.

Chain of recombinant CD73 (P21589 27-547): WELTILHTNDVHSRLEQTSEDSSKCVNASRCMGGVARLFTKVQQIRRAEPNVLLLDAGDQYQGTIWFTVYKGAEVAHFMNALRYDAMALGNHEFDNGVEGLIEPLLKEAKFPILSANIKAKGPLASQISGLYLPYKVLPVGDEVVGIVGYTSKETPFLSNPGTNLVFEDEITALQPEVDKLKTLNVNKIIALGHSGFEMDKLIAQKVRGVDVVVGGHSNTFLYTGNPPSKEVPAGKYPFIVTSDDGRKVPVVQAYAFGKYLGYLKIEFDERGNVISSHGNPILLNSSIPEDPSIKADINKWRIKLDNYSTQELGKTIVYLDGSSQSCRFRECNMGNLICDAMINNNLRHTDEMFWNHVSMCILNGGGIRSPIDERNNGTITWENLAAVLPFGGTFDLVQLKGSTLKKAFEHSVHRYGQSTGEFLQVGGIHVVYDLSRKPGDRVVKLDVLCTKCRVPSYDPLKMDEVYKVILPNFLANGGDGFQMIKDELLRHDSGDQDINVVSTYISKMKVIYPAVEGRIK

First: C#C[C@@]1(O)[C@@H](COC(C(N)=O)C(=O)O)O[C@@H](n2cnc3c(NC4CCCC4)nc(Cl)nc32)[C@@H]1O (stereo partly drawn) [Example 115, 3-amino-2-(((2R,3S,4R,5R)-5-(2-chloro-6-(cyclopentylamino)-9H-purin-9-yl)-3-ethynyl-3,4-dihydroxytetrahydrofuran-2-yl)methoxy)-3-oxopropanoic acid]
Second: C#C[C@@]1(O)[C@@H](COC(C(N)=O)C(N)=O)O[C@@H](n2cnc3c(NC4CCCC4)nc(Cl)nc32)[C@@H]1O [Example 116, 2-(((2R,3S,4R,5R)-5-(2-chloro-6-(cyclopentylamino)-9H-purin-9-yl)-3-ethynyl-3,4-dihydroxytetrahydrofuran-2-yl)methoxy)malonamide]
The IC50 of the first is 60-fold lower: 0.135 µM for the first, 8.05 µM for the second.

`C#C[C@@]1(O)[C@@H](COC(Cc2cccc(C(F)(F)F)c2)(C(=O)O)C(=O)O)O[C@@H](n2cnc3c(N)nc(Cl)nc32)[C@@H]1O` [Example 50, 2-(((2R,3S,4R,5R)-5-(6-amino-2-chloro-9H-purin-9-yl)-3-ethynyl-3,4-dihydroxytetrahydrofuran-2-yl)methoxy)-2-(3-(trifluoromethyl)benzyl)malonic acid] and `C#C[C@@]1(O)[C@@H](COC(Cc2cccc(Cl)c2)(C(=O)O)C(=O)O)O[C@@H](n2cnc3c(N)nc(Cl)nc32)[C@@H]1O` [Example 51, 2-(((2R,3S,4R,5R)-5-(6-amino-2-chloro-9H-purin-9-yl)-3-ethynyl-3,4-dihydroxytetrahydrofuran-2-yl)methoxy)-2-(3-chlorobenzyl)malonic acid] are the same in IC50: 0.003 µM for the first, 0.003 µM for the second.

Compared with `C[C@@]1(O)[C@@H](CO[C@@](Cc2ccc(-c3ccccc3)cc2)(C(=O)O)c2cscn2)O[C@@H](n2cnc3c(N)nc(Cl)nc32)[C@@H]1O` (single isomer, unassigned) [Example 199], `C[C@@]1(O)[C@@H](COC(Cc2ccc(-c3ccccc3C(=O)O)cc2)(C(=O)O)c2nnn[nH]2)O[C@@H](n2cnc3c(N)nc(Cl)nc32)[C@@H]1O` (stereo partly drawn) [Example 201, 4′-(2-(((2R,3S,4R,5R)-5-(6-amino-2-chloro-9H-purin-9-yl)-3,4-dihydroxy-3-methyltetrahydrofuran-2-yl)methoxy)-2-carboxy-2-(1H-tetrazol-5-yl)ethyl)-[1,1′-biphenyl]-2-carboxylic acid] is 28-fold lower in IC50: 5.76 µM for the first, 0.204 µM for the second.

First: C#C[C@@]1(O)[C@@H](COC(C(=O)OC)P(=O)(O)O)O[C@@H](n2cnc3c(N)nc(Cl)nc32)[C@@H]1O (stereo partly drawn) [Example 123, (1-(((2R,3S,4R,5R)-5-(6-amino-2-chloro-9H-purin-9-yl)-3-ethynyl-3,4-dihydroxytetrahydrofuran-2-yl)methoxy)-2-methoxy-2-oxoethyl)phosphonic acid]
Second: C#C[C@@]1(O)[C@@H](COP(=O)(O)CP(=O)(O)O)O[C@@H](n2cnc3c(N)nc(Cl)nc32)[C@@H]1O [Example 202, (((((2R,3S,4R,5R)-5-(6-amino-2-chloro-9H-purin-9-yl)-3-ethynyl-3,4-dihydroxytetrahydrofuran-2-yl)methoxy)(hydroxy)phosphoryl)methyl)phosphonic acid]
The IC50 of the first is 2.1-fold lower: 0.071 µM for the first, 0.148 µM for the second.

Going from `C#C[C@@]1(O)[C@@H](COP(=O)(O)CP(=O)(O)O)O[C@@H](n2cnc3c(NCc4ccccc4)nc(Cl)nc32)[C@@H]1O` [Example 203, (((((2R,3S,4R,5R)-5-(6-(benzylamino)-2-chloro-9H-purin-9-yl)-3-ethynyl-3,4-dihydroxytetrahydrofuran-2-yl)methoxy)(hydroxy)phosphoryl)methyl)phosphonic acid] to `C#C[C@@]1(O)[C@@H](COC(Cc2ccccc2)(C(=O)O)C(=O)O)O[C@@H](n2cnc3c(NCc4ccccc4)nc(Cl)nc32)[C@@H]1O` [Example 59, 2-benzyl-2-(((2R,3S,4R,5R)-5-(6-(benzylamino)-2-chloro-9H-purin-9-yl)-3-ethynyl-3,4-dihydroxytetrahydrofuran-2-yl)methoxy)malonic acid], the IC50 falls from 0.0042 µM to 0.001 µM (4.2-fold). The second is the more potent here.

Going from `C#C[C@@]1(O)[C@@H](COC(Cc2ccccc2)(C(=O)O)C(=O)O)O[C@@H](n2cnc3c(NC4CCOCC4)nc(Cl)nc32)[C@@H]1O` [Example 60, 2-benzyl-2-(((2R,3S,4R,5R)-5-(2-chloro-6-((tetrahydro-2H-pyran-4-yl)amino)-9H-purin-9-yl)-3-ethynyl-3,4-dihydroxytetrahydrofuran-2-yl)methoxy)malonic acid] to `C#C[C@@]1(O)[C@@H](COC(Cc2ccccc2)(C(=O)O)C(=O)O)O[C@@H](n2cnc3c(NC4CCCC4)nc(Cl)nc32)[C@@H]1O` [Example 91, 2-benzyl-2-(((2R,3S,4R,5R)-5-(2-chloro-6-(cyclopentylamino)-9H-purin-9-yl)-3-ethynyl-3,4-dihydroxytetrahydrofuran-2-yl)methoxy)malonic acid], the IC50 falls from 0.003 µM to 0.0003 µM (10-fold). The second is the more potent here.

Going from `Nc1nc(Cl)nc2c1ncn2[C@@H]1O[C@H](COC(C(=O)O)C(=O)O)[C@](O)(C#Cc2ccnn2Cc2ccccc2)[C@H]1O` [Example 29, 2-(((2R,3S,4R,5R)-5-(6-amino-2-chloro-9H-purin-9-yl)-3-((1-benzyl-1H-pyrazol-5-yl)ethynyl)-3,4-dihydroxytetrahydrofuran-2-yl)methoxy)malonic acid] to `Nc1nc(Cl)nc2c1ncn2[C@@H]1O[C@H](COC(C(=O)O)C(=O)O)[C@](O)(C#Cc2cc[nH]n2)[C@H]1O` [Example 27, 2-(((2R,3S,4R,5R)-3-((1H-pyrazol-3-yl)ethynyl)-5-(6-amino-2-chloro-9H-purin-9-yl)-3,4-dihydroxytetrahydrofuran-2-yl)methoxy)malonic acid], the IC50 rises from 0.002 µM to 0.018 µM (9-fold).

First: C#C[C@@]1(O)[C@@H](COC(C(=O)NO)c2cscn2)O[C@@H](n2cnc3c(N)nc(Cl)nc32)[C@@H]1O (single isomer, unassigned) [Example 185]
Second: C#C[C@@]1(O)[C@@H](COC(C(=O)O)c2csc(C(=O)O)n2)O[C@@H](n2cnc3c(N)nc(Cl)nc32)[C@@H]1O (stereo partly drawn) [Example 195, 4-((((2R,3S,4R,5R)-5-(6-amino-2-chloro-9H-purin-9-yl)-3-ethynyl-3,4-dihydroxytetrahydrofuran-2-yl)methoxy)(carboxy)methyl)thiazole-2-carboxylic acid]
The IC50 of the first is 50-fold higher: 11.7 µM for the first, 0.236 µM for the second. The second is the more potent here.

`C#C[C@@]1(O)[C@@H](COC(Cc2ccccc2)(C(=O)O)C(=O)O)O[C@@H](n2cnc3c(NCCN(CC)CC)nc(Cl)nc32)[C@@H]1O` [Example 61, 2-benzyl-2-(((2R,3S,4R,5R)-5-(2-chloro-6-((2-(diethylamino)ethyl)-amino)-9H-purin-9-yl)-3-ethynyl-3,4-dihydroxytetrahydrofuran-2-yl)methoxy)-malonic acid] and `C#C[C@@]1(O)[C@@H](COC(Cc2ccccc2)(C(=O)O)C(=O)O)O[C@@H](n2cnc3c(NC(C)C)nc(Cl)nc32)[C@@H]1O` [Example 93, 2-benzyl-2-(((2R,3S,4R,5R)-5-(2-chloro-6-(isopropylamino)-9H-purin-9-yl)-3-ethynyl-3,4-dihydroxytetrahydrofuran-2-yl)methoxy)malonic acid] are within 1.5-fold of each other in IC50: 0.0015 µM for the first, 0.0017 µM for the second.

Compared with `C#C[C@@]1(O)[C@@H](COC(C(=O)NO)c2cscn2)O[C@@H](n2cnc3c(N)nc(Cl)nc32)[C@@H]1O` (single isomer, unassigned) [Example 186], `C#C[C@@]1(O)[C@@H](COC(C(=O)O)C(=O)N2CCCC2)O[C@@H](n2cnc3c(N)nc(Cl)nc32)[C@@H]1O` (stereo partly drawn) [Example 113, 2-(((2R,3S,4R,5R)-5-(6-amino-2-chloro-9H-purin-9-yl)-3-ethynyl-3,4-dihydroxytetrahydrofuran-2-yl)methoxy)-3-oxo-3-(pyrrolidin-1-yl)propanoic acid] is 27-fold lower in IC50: 8.83 µM for the first, 0.331 µM for the second.

First: C#C[C@@]1(O)[C@@H](COC(Cc2ccccc2)(C(=O)O)c2csc(C(=O)O)n2)O[C@@H](n2cnc3c(N)nc(Cl)nc32)[C@@H]1O (stereo partly drawn) [Example 196, 4-(1-(((2R,3S,4R,5R)-5-(6-amino-2-chloro-9H-purin-9-yl)-3-ethynyl-3,4-dihydroxytetrahydrofuran-2-yl)methoxy)-1-carboxy-2-phenylethyl)thiazole-2-carboxylic acid]
Second: C#C[C@@]1(O)[C@@H](COC(Cc2cccc(C(=O)O)c2)(C(=O)O)c2cscn2)O[C@@H](n2cnc3c(N)nc(Cl)nc32)[C@@H]1O (stereo partly drawn) [Example 182, 3-(2-(((2R,3S,4R,5R)-5-(6-amino-2-chloro-9H-purin-9-yl)-3-ethynyl-3,4-dihydroxytetrahydrofuran-2-yl)methoxy)-2-carboxy-2-(thiazol-4-yl)ethyl)benzoic acid]
The IC50 of the first is 3.4-fold higher: 0.082 µM for the first, 0.024 µM for the second.

First: C#C[C@@]1(O)[C@@H](CO[C@@](Cc2ccccc2)(C(=O)O)c2cscn2)O[C@@H](n2cnc3c(NC)nc(Cl)nc32)[C@@H]1O [Example 188, (R)-2-(((2R,3S,4R,5R)-5-(2-chloro-6-(methylamino)-9H-purin-9-yl)-3-ethynyl-3,4-dihydroxytetrahydrofuran-2-yl)methoxy)-3-phenyl-2-(thiazol-4-yl)propanoic acid]
Second: C#C[C@@]1(O)[C@@H](CO[C@@](Cc2ccccc2)(C(=O)O)c2nnn[nH]2)O[C@@H](n2cnc3c(N)nc(Cl)nc32)[C@@H]1O [Example 192, (R)-2-(((2R,3S,4R,5R)-5-(6-amino-2-chloro-9H-purin-9-yl)-3-ethynyl-3,4-dihydroxytetrahydrofuran-2-yl)methoxy)-3-phenyl-2-(1H-tetrazol-5-yl)propanoic acid]
The IC50 of the first is 5.4-fold higher: 0.134 µM for the first, 0.025 µM for the second. The second is the more potent here.

Compared with `C#CCC(OC[C@H]1O[C@@H](n2cnc3c(N)nc(Cl)nc32)[C@H](O)[C@@]1(O)C#C)(C(=O)O)C(=O)O` [Example 25, 2-(((2R,3S,4R,5R)-5-(6-amino-2-chloro-9H-purin-9-yl)-3-ethynyl-3,4-dihydroxytetrahydrofuran-2-yl)methoxy)-2-(prop-2-yn-1-yl)malonic acid], `C#C[C@@]1(O)[C@@H](COC(C(=O)OCC)P(=O)(O)O)O[C@@H](n2cnc3c(N4CCOCC4)nc(Cl)nc32)[C@@H]1O` (stereo partly drawn) [Example 124, (1-(((2R,3S,4R,5R)-5-(2-chloro-6-morpholino-9H-purin-9-yl)-3-ethynyl-3,4-dihydroxytetrahydrofuran-2-yl)methoxy)-2-ethoxy-2-oxoethyl)phosphonic acid] is 3.9-fold higher in IC50: 0.007 µM for the first, 0.027 µM for the second. The first is the more potent here.
